The record followed here is US7183415B2, “Quinoline compound” (Takeda Pharmaceutical Company Limited, priority 2001, dated 2007).

`Cc1c(NC(=O)c2ccc(-c3ccc(F)cc3)cc2)ccc2cc(CN3CCC(CCCC(=O)N4CCCCC4)CC3)cnc12` [Example 211, 4′-fluoro-N-[8-methyl-3-({4-[4-oxo-4-(1-piperidinyl)butyl]-1-piperidinyl}methyl)-7-quinolinyl][1,1′-biphenyl]-4-carboxamide] showed a melting point of 154 to 156 °C.
For `O=C(Nc1ccc2cc(CN3CCCCCC3)cnc2c1)c1ccc(-c2ccc(Cl)cc2)nc1` [Example 32, N-[3-(1-azepanylmethyl)-7-quinolinyl]-6-(4-chlorophenyl)nicotinamide], the melting point was 233 °C (dec.).
For `Cc1cc(-c2ccc(F)cc2)ccc1C(=O)Nc1ccc2cc(CN3CCCC3)cnc2c1C` [Example 158, 4′-fluoro-3-methyl-N-[8-methyl-3-(1-pyrrolidinylmethyl)-7-quinolinyl][1,1′-biphenyl]-4-carboxamide], the melting point lay within 200 to 203 °C.
As for `O=C(Nc1ccc2cc(CN3CCCC3)cnc2c1)N1CCC(c2ccc(F)cc2)CC1` [Example 14, 4-(4-fluorophenyl)-N-[3-(1-pyrrolidinylmethyl)-7-quinolinyl]-1-piperidine carboxamide], the figure is 239 to 241 °C; as for `O=C(Nc1ccc2cc(CN3CCCC3)cnc2c1)c1ccc(-c2ccccc2)cc1F` [Example 88, 3-fluoro-N-[3-(1-pyrrolidinylmethyl)-7-quinolinyl][1,1′-biphenyl]-4-carboxamide], 166 °C.
`Cc1cc2cc(CN3CCC(CC(N)=O)CC3)cnc2cc1NC(=O)c1ccc(-c2ccc(F)cc2)cc1` [Example 270, N-(3-{[4-(2-amino-2-oxoethyl)-1-piperidinyl]methyl}-6-methyl-7-quinolinyl)-4′-fluoro[1,1′-biphenyl]-4-carboxamide] displayed a melting point of 249 °C.
As for `Cc1c(NC(=O)c2ccc(-c3ccccc3)cc2F)ccc2cc(CN3CCCC3)cnc12` [Example 149, 3-fluoro-N-[8-methyl-3-(1-pyrrolidinylmethyl)-7-quinolinyl][1,1′-biphenyl]-4-carboxamide], the melting point was in the range of 166 to 168 °C.
To `Cc1c(NC(=O)c2ccc(-c3ccc(Cl)cc3)nc2)ccc2cc(CN3CCCC3)cnc12` [Example 95, 6-(4-chlorophenyl)-N-[8-methyl-3-(1-pyrrolidinylmethyl)-7-quinolinyl]nicotinamide] belongs 234 to 236 °C; to `Cc1c(NC(=O)c2ccc(-c3ccc(F)cc3)cc2)ccc2cc(CN3[C@H](C)CCC[C@@H]3C)cnc12` [Example 193, N-(3-{[(2R,6S)-2,6-dimethylpiperidinyl]methyl}-8-methyl-7-quinolinyl)-4′-fluoro[1,1′-biphenyl]-4-carboxamide], 167 to 168 °C.
As to `O=C(Nc1ccc2cc(CN3CCCC3)cnc2c1)N1CCC(c2ccc(Cl)cc2)CC1` [Example 16, 4-(4-chlorophenyl)-N-[3-(1-pyrrolidinylmethyl)-7-quinolinyl]-1-piperidine carboxamide], the melting point lay within 249 to 251 °C.
As for `O=C(Nc1cc2ncc(CN3CCCC3)cc2cc1Cl)c1ccc(-c2cc3ccccc3o2)cc1` [Example 68, 4-(1-benzofuran-2-yl)-N-[6-chloro-3-(1-pyrrolidinylmethyl)-7-quinolinyl]benzamide], the figure is 209 °C; as for `COc1cc2cc(CN3CCCC3)cnc2cc1NC(=O)c1ccc(-c2ccc(Cl)cc2)cc1` [Example 23, 4′-chloro-N-[6-methoxy-3-(1-pyrrolidinylmethyl)-7-quinolinyl][1,1′-biphenyl]-4-carboxamide], 271 °C (dec.); as for `Cc1cc2cc(CN3CCCC3)cnc2cc1NC(=O)c1ccc(-c2ccco2)cc1` [Example 224, 4-(2-furyl)-N-[6-methyl-3-(1-pyrrolidinylmethyl)-7-quinolinyl]benzamide], 154 °C.
As for `COc1ccc(-c2ccc(C(=O)Nc3ccc4cc(CN5CCCC5)cnc4c3F)c(F)c2)cc1` [Example 79, 3-fluoro-N-[8-fluoro-3-(1-pyrrolidinylmethyl)-7-quinolinyl]-4′-methoxy[1,1′-biphenyl]-4-carboxamide], the figure is 182 to 183 °C; as for `CCNC(=O)C1CCN(Cc2cnc3cc(NC(=O)c4ccc(-c5ccc(F)cc5)cc4)c(C)cc3c2)CC1` [Example 273, N-ethyl-1-[(7-{[(4′-fluoro-1,1′-biphenyl-4-yl)carbonyl]amino}-6-methyl-3-quinolinyl)methyl]piperidine-4-carboxamide], 254 °C; as for `Cc1c(NC(=O)c2ccc(-c3ccc(F)cc3)c(F)c2)ccc2cc(CN3CCCCCC3)cnc12` (hydrate or solvate) [Example 189, N-[3-(1-azepanylmethyl)-8-methyl-7-quinolinyl]-2,4′-difluoro[1,1′-biphenyl]-4-carboxamide], 162 to 163 °C.
On to `Cc1cc2cc(CN3CCCC3)cnc2cc1NC(=O)c1ccc(-c2ccc(Cl)cc2)cc1F` [Example 230, 4′-chloro-3-fluoro-N-[6-methyl-3-(1-pyrrolidinylmethyl)-7-quinolinyl][1,1′-biphenyl]-4-carboxamide], for which the melting point was 195 to 198 °C.
To `Cc1c(NC(=O)c2ccc(-c3ccc(F)cc3)cc2F)ccc2cc(CN3CCCCC3)cnc12` [Example 170, 3,4′-difluoro-N-[8-methyl-3-(1-piperidinylmethyl)-7-quinolinyl][1,1′-biphenyl]-4-carboxamide] belongs 186 to 187 °C; to `Cc1cc2cc(CN3CCCCCC3)cnc2cc1NC(=O)c1ccc(-c2ccc(Cl)cc2)cc1` [Example 238, N-[3-(1-azepanylmethyl)-6-methyl-7-quinolinyl]-4′-chloro[1,1′-biphenyl]-4-carboxamide], 204 °C.
To `Cc1cc2cc(CN3CCC(CCCC(=O)N(C)C)CC3)cnc2cc1NC(=O)c1ccc(-c2ccc(F)cc2)cc1` [Example 262, N-[3-({4-[4-(dimethylamino)-4-oxobutyl]-1-piperidinyl}methyl)-6-methyl-7-quinolinyl]-4′-fluoro[1,1′-biphenyl]-4-carboxamide] belongs 194 °C; to `COc1ccc(-c2ccc(C(=O)Nc3cc4ncc(CN5CCCC5)cc4cc3C)c(F)c2)cc1` [Example 227, 3-fluoro-4′-methoxy-N-[6-methyl-3-(1-pyrrolidinylmethyl)-7-quinolinyl][1,1′-biphenyl]-4-carboxamide], 187 to 190 °C.
As for `Cc1c(NC(=O)c2ccc(-c3ccccc3F)cc2F)ccc2cc(CN3CCCC3)cnc12` [Example 148, 2′,3-difluoro-N-[8-methyl-3-(1-pyrrolidinylmethyl)-7-quinolinyl][1,1′-biphenyl]-4-carboxamide], the melting point fell in the range of 159 to 160 °C.
As for `COc1cc2cc(CN3CCCCC3)cnc2cc1NC(=O)c1ccc(-c2ccc(Cl)cc2)cc1` [Example 24, 4′-chloro-N-[6-methoxy-3-(1-piperidinylmethyl)-7-quinolinyl][1,1′-biphenyl]-4-carboxamide], the figure is 236 °C (dec.).
To `Cc1cc2cc(CN3CCCC3)cnc2cc1NC(=O)c1ccc(-c2ccccc2Cl)cc1.Cl` belongs 283 °C; to `NC(=O)C1CCN(Cc2cnc3cc(NC(=O)c4ccc(-c5ccc(F)cc5)cc4)ccc3c2)CC1` [Example 42, 1-[(7-{[(4′-fluoro[1,1′-biphenyl]-4-yl)carbonyl]amino}-3-quinolinyl)methyl]-4-piperidine carboxamide], 261 to 265 °C; to `Cc1cc2cc(CN3CCC(CCC(N)=O)CC3)cnc2cc1NC(=O)c1ccc(-c2ccc(F)cc2)cc1` [Example 253, N-(3-{[4-(3-amino-3-oxopropyl)-1-piperidinyl]methyl}-6-methyl-7-quinolinyl)-4′-fluoro[1,1′-biphenyl]-4-carboxamide], 223 to 227 °C.
To `Cc1c(NC(=O)c2ccc(-c3ccc(F)cc3)cc2)ccc2cc(CN3CCC3)cnc12` [Example 191, N-[3-(1-azetidinylmethyl)-8-methyl-7-quinolinyl]-4′-fluoro[1,1′-biphenyl]-4-carboxamide] belongs 153 to 155 °C.
`O=C(Nc1ccc2cc(CN3CCCC3)cnc2c1F)c1ccc(-c2ccccc2)cc1F` [Example 77, 3-fluoro-N-[8-fluoro-3-(1-pyrrolidinylmethyl)-7-quinolinyl][1,1′-biphenyl]-4-carboxamide] yielded a melting point of 136 to 137 °C.
As for `Cc1cc2cc(CN3CCC(CC(=O)N4CCCCC4)CC3)cnc2cc1NC(=O)c1ccc(-c2ccc(F)cc2)cc1` [Example 265, 4′-fluoro-N-[6-methyl-3-({4-[2-oxo-2-(1-piperidinyl)ethyl]-1-piperidinyl}methyl)-7-quinolinyl][1,1′-biphenyl]-4-carboxamide], the figure is 216 °C.
To `Cc1c(NC(=O)c2ccc(-c3ccc(F)cc3)cc2)ccc2cc(CN3CCC(CC(=O)N(C)C)CC3)cnc12` [Example 202, N-[3-({4-[2-(dimethylamino)-2-oxoethyl]-1-piperidinyl}methyl)-8-methyl-7-quinolinyl]-4′-fluoro[1,1′-biphenyl]-4-carboxamide] belongs 200 to 201 °C.
Consider `CCN(CC)C(=O)CC1CCN(Cc2cnc3cc(NC(=O)c4ccc(-c5ccc(F)cc5)cc4)c(C)cc3c2)CC1` [Example 266, N-[3-({4-[2-(diethylamino)-2-oxoethyl]-1-piperidinyl}methyl)-6-methyl-7-quinolinyl]-4′-fluoro[1,1′-biphenyl]-4-carboxamide], for which the melting point is 197 °C.

As a reminder, the melting point is the temperature of the solid-liquid transition.
